Source: patent US20160310472A1, “PHARMACEUTICAL COMPOSITIONS COMPRISING SULBACTAM AND IMIPENEM” (priority 2013, published 2016)

Experiments:
A. baumannii S-12 strain = test: Time-kill study, viable bacterial count in broth, A. baumannii S-12; type: cell-based, Acinetobacter baumannii
Method: (§1) The antibacterial activity of compositions according to the invention against various bacterial strains was investigated. In a typical study, freshly grown cultures were diluted to required cell density (initial starting inoculum) in Brain Heart Infusion broth medium (BD, USA). The antibacterial agents (either alone or in combination) in required concentrations were added into the culture containing medium. The samples were incubated under shaking conditions (120 rpm) at 37° C. Enumeration of viable bacterial count was undertaken, every 2 hours, by diluting in normal saline and plating on to Tryptic Soya Agar plates (BD, USA). The plates were incubated for 24 hours to arrive at a viable bacterial count.

[1] = test system: A. baumannii S-224 strain; test: Time-kill study, viable bacterial count in broth, A. baumannii S-224; type: cell-based, Acinetobacter baumannii
Method: as §1
A. baumannii S-224 strain expresses both Class D beta-lactamases (OXA-51 and OXA-23 like) and Class B metalo-beta-lactamases (NDM).

A. baumannii S-5 strain = test: Mouse Systemic Infection Model; conditions: agent alone; Swiss albino mice, subcutaneous TID from 1 hour post infection, survival over 10 days

C[C@@H](O)[C@H]1C(=O)N2C(C(=O)O)=C(SCCN=CN)C[C@H]12 [Imipenem]
Bacterial count (A. baumannii S-12 strain; Imipenem 8 mcg/ml, 0 hour): 6.87 log CFU/ml
Bacterial count (A. baumannii S-12 strain; Imipenem 8 mcg/ml, 2 hours): 7.69 log CFU/ml
Bacterial count (A. baumannii S-12 strain; Imipenem 8 mcg/ml, 4 hours): 8.27 log CFU/ml
Bacterial count (A. baumannii S-12 strain; Imipenem 8 mcg/ml, 6 hours): 8.27 log CFU/ml
Bacterial count (A. baumannii S-12 strain; Imipenem 16 mcg/ml, 0 hour): 6.87 log CFU/ml
Bacterial count (A. baumannii S-12 strain; Imipenem 16 mcg/ml, 2 hours): 7.69 log CFU/ml
Bacterial count (A. baumannii S-12 strain; Imipenem 16 mcg/ml, 4 hours): 8.11 log CFU/ml
Bacterial count (A. baumannii S-12 strain; Imipenem 16 mcg/ml, 6 hours): 7.84 log CFU/ml
Bacterial count ([1]; Imipenem 8 mcg/ml, 0 hour): 6.74 log CFU/ml
Bacterial count ([1]; Imipenem 8 mcg/ml, 2 hours): 7.20 log CFU/ml
Bacterial count ([1]; Imipenem 8 mcg/ml, 4 hours): 8.11 log CFU/ml
Bacterial count ([1]; Imipenem 8 mcg/ml, 6 hours): 8.04 log CFU/ml
Bacterial count ([1]; Imipenem 16 mcg/ml, 0 hour): 6.74 log CFU/ml
Bacterial count ([1]; Imipenem 16 mcg/ml, 2 hours): 7.17 log CFU/ml
Bacterial count ([1]; Imipenem 16 mcg/ml, 4 hours): 8.04 log CFU/ml
Bacterial count ([1]; Imipenem 16 mcg/ml, 6 hours): 7.90 log CFU/ml
ED50 (A. baumannii S-5 strain): >50 mg/kg body weight
ED90 (A. baumannii S-5 strain): >50 mg/kg body weight

CC1(C)[C@H](C(=O)O)N2C(=O)C[C@H]2S1(=O)=O [Sulbactam]
Decrease in number of colony forming units (in words) (A. baumannii S-12 strain; S-12 strain): not observed
Bacterial count (A. baumannii S-12 strain; Sulbactam 16 mcg/ml, 0 hour): 6.87 log CFU/ml
Bacterial count (A. baumannii S-12 strain; Sulbactam 16 mcg/ml, 2 hours): 5.84 log CFU/ml
Bacterial count (A. baumannii S-12 strain; Sulbactam 16 mcg/ml, 4 hours): 5.27 log CFU/ml
Bacterial count (A. baumannii S-12 strain; Sulbactam 16 mcg/ml, 6 hours): 6.23 log CFU/ml
Bacterial count ([1]; Sulbactam 16 mcg/ml, 0 hour): 6.74 log CFU/ml
Bacterial count ([1]; Sulbactam 16 mcg/ml, 2 hours): 6.65 log CFU/ml
Bacterial count ([1]; Sulbactam 16 mcg/ml, 4 hours): 7.17 log CFU/ml
Bacterial count ([1]; Sulbactam 16 mcg/ml, 6 hours): 7.27 log CFU/ml
